Laboratory results taken from patent US6949545B2, “Heterocyclic side chain containing, n-substituted metalloprotease inhibitors” (The Procter & Gamble Company, priority 2000, dated 2005).

Test system: asthma sufferer
Assay: Example E: inhalation aerosol for asthma
Type: in vivo, human
Conditions: 5.0% w/v aerosol, 0.01 mL sprayed into the mouth while inhaling
Description: An inhalation aerosol composition, according to the present invention, is made comprising: An asthma sufferer sprays 0.01 mL via a pump actuator into the mouth while inhaling.

COc1ccc(-c2ccc(S(=O)(=O)N(C)C(C(=O)O)C3CCN(CCc4ccccc4)CC3)cc2)cc1 (stereo not shown) [Example 17, [(4′-Methoxy-biphenyl-4-sulfonyl)-methyl-amino]-(1-phenethyl-piperidin-4-yl)-acetic Acid]
asthma symptoms: Asthma symptoms are diminished
